{"source": "a melting point compilation (Tetko et al.; mined from patent text by program, amines drawn as free bases though some values may be those of a salt)"}
{"units": {"melting point": "°C"}}
{"smiles": "Cc1ccccc1C=CCC(C(=O)C=Cc1ccc(Cl)cc1)c1ccccc1", "note": "(stereo not given)", "melting point": "60 to 76"}
{"smiles": "COC(=O)Cc1coc2cc(C(=O)NC(C(=O)NCc3ccccc3)c3ccccc3)ccc12", "note": "(stereo not given)", "melting point": "129 to 131"}
{"smiles": "CC(=O)NC1CC(N)(C(=O)O)C2C(C(=O)O)C12", "note": "(stereo not given)", "melting point": "> 275"}
{"smiles": "CSc1ccc(Oc2ccc(Cl)c(Cl)c2)nc1C#N", "melting point": "156 to 158"}
{"smiles": "CON1C(=O)CC2(CCN(C(=O)OC(C)(C)C)CC2)C1=O", "melting point": 117}
{"smiles": "CC(C)NC1=NS(=O)(=O)c2ccc(C(C)C)cc2N1", "melting point": "237 to 239"}
{"smiles": "O=C(NCCCCC1CCSS1)NS(=O)(=O)NC(=O)NCCCCC1CCSS1", "note": "(stereo not given)", "melting point": "153 to 156"}
{"smiles": "CC(=O)c1cccn1N1C(=O)c2ccccc2C1=O", "melting point": "204 to 205"}
{"smiles": "COCC(=O)Nc1ccc(C2=NNC(=O)CC2C)cc1", "note": "(stereo not given)", "melting point": 212}
{"smiles": "O=C(CCc1cc2cccnc2n(-c2cccc([N+](=O)[O-])c2)c1=O)c1ccncc1", "melting point": "200 to 202"}
{"smiles": "COC1C(O)C(CO)OC1n1cnc2c(N)nc(N)nc21", "note": "(stereo not given)", "melting point": "133 to 135"}
{"smiles": "CC1(C)CCC(C)(C)c2cc(C(N)C(=O)NCS(=O)(=O)c3ccccc3)ccc21", "note": "(stereo not given)", "melting point": "175 to 176"}
{"smiles": "CC12CCC(I)CC1=CCC1C2CCC2(C)C1CCC21OCCO1", "note": "(stereo not given)", "melting point": "140 to 141"}
{"smiles": "CC(=O)n1ccn(C(C)=O)c1=O", "melting point": 106}
{"smiles": "O=C(Nc1ccccc1)N(Cc1ccc(Br)cc1)C1CCCC1", "melting point": "130 to 132"}
{"smiles": "Cc1cccc(NC(=O)NC(Cc2ccccc2)C(=O)O)c1", "note": "(racemic)", "melting point": 182}
{"smiles": "CC(C)NCC(O)COc1ccc2c(=O)cc(-c3cc(O)cc(O)c3)oc2c1", "note": "(stereo not given)", "melting point": 130}
{"smiles": "CCOc1ccc(C2C(C(=O)c3ccc(C(C)C)cc3)=C(O)C(=O)N2c2ccc(C)nn2)cc1", "note": "(stereo not given)", "melting point": 279}
{"smiles": "CCOC(=O)C1=Cc2cc(Cl)c(O)cc2OC1C(F)(F)F", "note": "(stereo not given)", "melting point": "118 to 125"}
{"smiles": "COc1ccc(CCNC(=O)N(C)O)cc1OCc1ccccc1", "melting point": "125 to 126"}
{"smiles": "NCCCNc1cccc2[nH]ncc12", "melting point": "154 to 163"}
{"smiles": "O=C(O)CCCc1ccccc1CC1C(=O)CC(=O)C1=O", "note": "(stereo not given)", "melting point": 123}
{"smiles": "COc1ccc2c(c1)c(CC(=O)NN)c(C)n2Cc1c(Cl)cccc1Cl", "melting point": "194 to 196"}
{"smiles": "NC(=O)Nc1cccc(OCCCCl)c1", "melting point": "141 to 143"}
{"smiles": "CC(C)(C)CN(CC(C)(C)C)C(=O)C(O)(C(=O)O)c1ccc(Cl)c(Cl)c1", "note": "(stereo not given)", "melting point": "94 to 95"}
{"smiles": "CN(C)CCc1cccc2ccc(CS(=O)(=O)N3CCOCC3)cc12", "melting point": "114 to 117"}
{"smiles": "O=S(=O)(Oc1ccc2ncc3c(c2c1)CCCC3)C(F)(F)F", "melting point": "80 to 81"}
{"smiles": "Cc1c(O)ccc(-c2ccc(C#N)cc2)c1C", "melting point": "174 to 176"}
{"smiles": "O=C1CCC2CCCCC2N1", "note": "(stereo not given)", "melting point": "123 to 126"}
{"smiles": "CCOC(=O)c1ncc2[nH]c3ccc(C4=CC(=O)CCC4)cc3c2c1C", "melting point": "245 to 248"}
{"smiles": "CCCC1=C(C(=O)OCC)C(c2cccc(F)c2C)c2c[nH]nc2N1", "note": "(stereo not given)", "melting point": "159 to 162"}
{"smiles": "Clc1nc(-c2nc3ccccc3[nH]2)[nH]c1Cl", "melting point": 300}
{"smiles": "O=C(Nc1ccc(-n2nc(C(F)(F)F)cc2C(F)(F)F)cc1)c1ccc(C(F)(F)F)cc1C(F)(F)F", "melting point": "200 to 201"}
{"smiles": "Nc1c(C#Cc2ccccc2)cnnc1C1CN2CCNC1CC2", "note": "(stereo not given)", "melting point": "182 to 183"}
{"smiles": "Cc1noc(NS(=O)(=O)c2c(Cl)sc(Cl)c2Br)c1Br", "melting point": "146 to 149"}
{"smiles": "COC(=O)c1ccccc1-c1ccc(CNc2nc(=O)[nH]c3ccccc23)cc1", "melting point": "140 to 160"}
{"smiles": "Cc1oc(-c2ccccc2)nc1CCOc1ccc(C[C@@H](C(=O)O)N2CCN(c3cccc(Cl)c3)CC2)cc1", "melting point": "138 to 139"}
{"smiles": "COc1ccc(C2CCN(C(=O)C(=O)NO)CC2)cc1OC1CCCC1", "melting point": 124}
{"smiles": "CN1C(=O)C2(COc3cc4c(cc32)OCCO4)c2c(-c3ccoc3)cccc21", "note": "(stereo not given)", "melting point": "178 to 180"}
{"smiles": "O=C1N(Cc2nc(C(F)(F)F)cs2)c2ccccc2C12COc1cc3c(cc12)OCCO3", "note": "(stereo not given)", "melting point": "169 to 170"}
{"smiles": "CCCCOc1ccc(C(=O)NCCC(=O)O)cc1", "melting point": "144 to 146"}
{"smiles": "O=c1[nH]ccc2c(OCc3ccccc3)cccc12", "melting point": "165 to 168"}
{"smiles": "Nc1cc(CCC(=O)CCc2ccc(O)c(N)c2)ccc1O", "melting point": "131 to 133"}
{"smiles": "CC(C)C(=O)NCCOc1ccc([N+](=O)[O-])cc1", "melting point": "102 to 103"}
{"smiles": "COc1cc(-c2nc(C)c(C(=O)O)s2)cc(OC)c1OC", "melting point": "205 to 207"}
{"smiles": "CCCC12CCC(=O)C=C1c1c(cc(OCC(=O)OCC)c(Cl)c1Cl)C2OC(C)=O", "note": "(stereo not given)", "melting point": "128 to 130"}
{"smiles": "S=C1NCC(Cl)=NN1c1cc(Cl)cc(Cl)c1", "melting point": "207 to 208"}
{"smiles": "O=C(O)c1nc2cc(N3CCOCC3)c([N+](=O)[O-])cc2[nH]c1=O", "melting point": 214}
{"smiles": "O=C(Nc1cccc(S(=O)(=O)CCO)c1)c1cnn2c(C(F)F)cc(-c3ccc(C(F)(F)F)cc3)nc12", "melting point": 205}
{"smiles": "C=CCNc1cc(C(=O)O)cc(S(N)(=O)=O)c1Oc1ccccc1", "melting point": "223 to 225"}
